Laboratory results: article PMC4844649, “A first-in-Asian phase 1 study to evaluate safety, pharmacokinetics and clinical activity of VS-6063, a focal adhesion kinase (FAK) inhibitor in Japanese patients with advanced solid tumors” (Cancer Chemotherapy and Pharmacology, 2016)
Values joined by “and” are separate entries in the source; they are usually repeats but may differ in a detail not shown here. Equal entries are not always repeated. “Also recorded” adds a separate entry of the source. Where two headings read alike, the source gives them in different places.

Key:
[1] = phase 1 plasma pharmacokinetics, Cycle 1 Days 1 and 15; type: in vivo, human; settings: for V z, individual values: Day 15, N = 2, individual values are presented; for half-life / Cmax / AUC(0-t) / Tmax / AUC(0-inf): human, plasma; for AUC(0-t): read-out: AUC0–12h, GM (CV %)
Experimental: Pharmacokinetic samples were to be collected for determination of VS-6063 concentration and potential metabolites at the time points of Pre-dose (within 30 min of VS-6063 dosing), postdose (15 min, 30 min, and 1, 2, 4, 8, 12, and 24 h after VS-6063 administration) during Cycle 1 on Days 1 and 15. The analytical laboratory measured plasma concentrations using a validated method. Phoenix WinNonlin (v 6.3, Pharsight Inc., Mountain View, CA) was used to estimate all pharmacokinetic parameters using the non-compartmental analysis tool and the plasma model. Cmax and Tmax were determined by direct assessment (no calculations) of the concentration versus time data. All AUC calculations followed the linear trapezoidal rule. As data permitted, the terminal elimination rate constant (lambda z, λz) for VS-6063 data was calculated. Lambda z was determined by the slope of the regression line of the natural log transformed concentrations versus time with at least three data points not including the Cmax and a correlation coefficient (R^2) of regression >0.90. In instances where the λz range was not at least twofold greater than the calculated half-life, the resulting values (AUCINF, CL/F and Vz/F) were deemed unreliable and were not reported, although the half-life will be calculated and reported if the λz range met the R^2 requirements. The following PK parameters were to be calculated: oral clearance (CL/F), maximum concentration (Cmax), Tmax, half-life (T1/2), area under the curve (AUC), and other relevant parameters.

[2] = 24-h urine collection, elimination of VS-6063 and metabolites; type: in vivo, human; settings: all dose cohorts
Text: To assess the elimination of VS-6063 and its potential metabolites, total 24-h urine output was to be collected on Cycle 1 Day 1 and Cycle 1 Day 15 in conjunction with PK sampling.

[3] = system: advanced solid tumor malignancies; assay: antitumor activity by RECIST v1.1; type: in vivo, human
Experimental: This was a phase 1, open-label, dose-escalation study to evaluate the safety and PK of VS-6063, a FAK inhibitor in Japanese subjects with advanced solid tumor malignancies. This study was expected to enroll up to 18 evaluable subjects with non-hematologic malignancies if 6 subjects were assigned at each of the 3 planned dose levels of 200, 400, and 600 mg BID. VS-6063 was administered orally, BID, in continuous 21 day cycles. Subject enrollment proceeded according to a standard 3 + 3 design. In the absence of DLT, each subject received oral VS-6063 (BID) for a minimum of 21 days of continuous daily dosing (1 cycle) and could continue to receive additional cycles of study treatment until disease progression was documented or other treatment discontinuation criteria were met. All patients within a cohort were required to complete 1 cycle (21 days) of dosing with <1 of 3 or <2 of 6 subjects experiencing a DLT prior to escalation to the next dose level in a new cohort. Three subjects were to be treated at each dose level until the first instance of DLT, after which up to 6 subjects were to be treated at that dose level. […] The MTD was defined as the highest dose level studied at which <1 subject out of 3 or <2 subjects out of 6 experienced a DLT. The RP2D was to be determined in discussion among the sponsor, medical monitor, and investigators. Observations related to PK and any VS-6063-related toxicities were included in the rationale supporting the RP2D. Safety and tolerability was assessed by the incidence and severity of AEs as determined by National Cancer Institute (NCI) Common Terminology Criteria for Adverse Events (CTCAE v4.03). The antitumor activity of study treatment was assessed according to the Response Evaluation Criteria in Solid Tumors (RECIST v1.1).

recombinant human Pyk2 = settings: in vitro; background statement, no reference given; read-out: IC50, inhibition of recombinant human Pyk2 activity; cited from earlier work
other nontarget kinases = settings: background statement, no reference given; cited from earlier work
[4] = preclinical; no reference given; cited from earlier work
[5] = basis of the BID schedule; first-in-human experience; cited from earlier work
UGT1A1 = settings: in vitro; no reference given; cited from earlier work
[6] = po, 200 mg, 200 mg BID oral, n = 3, Day 1
[7] = po, 200 mg, 200 mg BID oral, n = 3, Day 15
[8] = po, 400 mg, 400 mg BID oral, n = 3, Day 1
[9] = po, 400 mg, 400 mg BID oral, n = 3, Day 15
[10] = po, 600 mg, 600 mg BID oral, n = 3, Day 1
[11] = po, 600 mg, 600 mg BID oral, n = 3, Day 15

## CNC(=O)c1ccc(Nc2ncc(C(F)(F)F)c(NCc3nccnc3N(C)S(C)(=O)=O)n2)cc1 [VS-6063, defactinib]
[1]; 200 mg BID oral
  V z, individual values: 334 L and 99.6 L
[1]; 400 mg BID (RP2D)
  exposure compared with that previously reported in non-Japanese subjects: comparable; also recorded: consistent with previously reported data in non-Japanese patients; also recorded: comparable to that previously reported in non-Japanese patients
[1]; 600 mg BID oral
  V z, individual values: 158 L and 3060 L
[1]; 600 mg versus 400 mg BID
  increase in exposure at doses above 400 mg BID: did not result in a significant increase in VS-6063 exposure
[1]; 200–600 mg BID
  dose proportionality of plasma exposure (Cmax and AUC): less than dose proportional
[1]; oral, 200–600 mg BID, Days 1 and 15, read-out: median half-life values, range across all dose regimens and both PK study days
  half-life: 2.3 to 4.3 h
[1]; [6]
  Cmax: 0.63 µg/mL
  AUC(0-t): 3.78 µg·h/mL
[1]; po, 200 mg, 200 mg BID oral, n = 3, Day 1, read-out: T max, median (range)
  Tmax: 2 h
[1]; po, 200 mg, 200 mg BID oral, n = 3, Day 1, read-out: t 1/2, median (range) (converted)
  half-life: 4.3 h
[1]; [7]
  Cmax: 0.93 µg/mL
  AUC(0-t): 6.24 µg·h/mL
[1]; po, 200 mg, 200 mg BID oral, n = 3, Day 15, read-out: T max, median (range)
  Tmax: 2 h
[1]; po, 200 mg, 200 mg BID oral, n = 3, Day 15, read-out: t 1/2, median (range) (converted)
  half-life: 2.95 h
[1]; [8]
  Cmax: 0.67 µg/mL
  AUC(0-t): 3.37 µg·h/mL
[1]; po, 400 mg, 400 mg BID oral, n = 3, Day 1, read-out: T max, median (range)
  Tmax: 2 h
[1]; po, 400 mg, 400 mg BID oral, n = 3, Day 1, read-out: t 1/2, median (range) (converted)
  half-life: 2.45 h
[1]; [9]
  Cmax: 0.96 µg/mL
  AUC(0-t): 5.71 µg·h/mL
[1]; po, 400 mg, 400 mg BID oral, n = 3, Day 15, read-out: T max, median (range)
  Tmax: 2 h
[1]; po, 400 mg, 400 mg BID oral, n = 3, Day 15, read-out: t 1/2, median (range) (converted)
  half-life: 3 h
[1]; [10]
  Cmax: 0.61 µg/mL
  AUC(0-t): 2.68 µg·h/mL
[1]; po, 600 mg, 600 mg BID oral, n = 3, Day 1, read-out: T max, median (range)
  Tmax: 2 h
[1]; po, 600 mg, 600 mg BID oral, n = 3, Day 1, read-out: t 1/2, median (range) (converted)
  half-life: 2.79 h
[1]; [11]
  Cmax: 0.98 µg/mL
  AUC(0-t): 4.88 µg·h/mL
[1]; po, 600 mg, 600 mg BID oral, n = 3, Day 15, read-out: T max, median (range)
  Tmax: 2 h
[1]; po, 600 mg, 600 mg BID oral, n = 3, Day 15, read-out: t 1/2, median (range) (converted)
  half-life: 2.27 h
[1]; po, oral doses of 200–600 mg BID, all cohorts, read-out: Tmax range
  Tmax: 0.5 to 4 h
[1]; po, oral doses of 200–600 mg BID, all cohorts, read-out: median Tmax
  Tmax: 2 h
[1]; 200 mg BID oral, n = 3, Day 1
  AUC(0-inf): 4.39 µg·h/mL
[1]; 400 mg BID oral, n = 3, Day 1
  AUC(0-inf): 3.84 µg·h/mL
[1]; 600 mg BID oral, n = 3, Day 1
  AUC(0-inf): 3 µg·h/mL
[2]
  detection in urine: detected in the urine of all patients
[2]; 24-h urine
  amount in urine, percent relative to the total dose administered, range: 0.0439 to 0.356%
[2]; human, oral, 24-h urine, Days 1 and 15, read-out: mean renal clearance (CLr), range
  CL renal: 1.43 to 2.98 mL/min
[3]; 200, 400, 600 mg cohorts
  median time to disease progression, range across dose cohorts: 61 to 64 days
[3]; 200–600 mg BID
  objective radiographic responses: No objective radiographic responses were observed
[3]; out of 9 subjects (33 %), 1 subject in each dose cohort
  best response overall: stable disease: 3 subjects
[3]; two subjects (malignant mesothelioma 400 mg and rectal cancer 600 mg)
  durable stable disease: approximately 24 weeks
Recombinant human Pyk2
  IC50: 0.6 nM
Other nontarget kinases
  selectivity for FAK and Pyk2 over other nontarget kinases: more than 100 fold
[4]
  potential target organs in toxicology studies: liver and gall bladder, gastrointestinal tract, hematopoietic system, testes/epididymis, and cardiovascular system
[5]
  observed human half-life: 9.0 h
UGT1A1
  UGT1A1 inhibition: UGT1A1 inhibitors in vitro
